Measurements from US20210300940A1 (Merck Patent GmbH, priority 2018, published 2021).
Counter-ions that a name gives are not always drawn.

What was measured:
[1] = target: T1, TLR7 (Homo sapiens, UniProt Q9NYK1); experiment: HEK/293 TLR7 Cell Assay; format: cell-based; settings: TLR7/NFKb HEK cells, R848 agonist 10 uM final concentration, Steady-Glo readout; read-out: TLR7 potency
T1 construct: expressed in transfected cells; host or cells: HEK/293 cells carrying TLR7 and an NF-kB luciferase reporter
T1 sequence (Q9NYK1 27-1049): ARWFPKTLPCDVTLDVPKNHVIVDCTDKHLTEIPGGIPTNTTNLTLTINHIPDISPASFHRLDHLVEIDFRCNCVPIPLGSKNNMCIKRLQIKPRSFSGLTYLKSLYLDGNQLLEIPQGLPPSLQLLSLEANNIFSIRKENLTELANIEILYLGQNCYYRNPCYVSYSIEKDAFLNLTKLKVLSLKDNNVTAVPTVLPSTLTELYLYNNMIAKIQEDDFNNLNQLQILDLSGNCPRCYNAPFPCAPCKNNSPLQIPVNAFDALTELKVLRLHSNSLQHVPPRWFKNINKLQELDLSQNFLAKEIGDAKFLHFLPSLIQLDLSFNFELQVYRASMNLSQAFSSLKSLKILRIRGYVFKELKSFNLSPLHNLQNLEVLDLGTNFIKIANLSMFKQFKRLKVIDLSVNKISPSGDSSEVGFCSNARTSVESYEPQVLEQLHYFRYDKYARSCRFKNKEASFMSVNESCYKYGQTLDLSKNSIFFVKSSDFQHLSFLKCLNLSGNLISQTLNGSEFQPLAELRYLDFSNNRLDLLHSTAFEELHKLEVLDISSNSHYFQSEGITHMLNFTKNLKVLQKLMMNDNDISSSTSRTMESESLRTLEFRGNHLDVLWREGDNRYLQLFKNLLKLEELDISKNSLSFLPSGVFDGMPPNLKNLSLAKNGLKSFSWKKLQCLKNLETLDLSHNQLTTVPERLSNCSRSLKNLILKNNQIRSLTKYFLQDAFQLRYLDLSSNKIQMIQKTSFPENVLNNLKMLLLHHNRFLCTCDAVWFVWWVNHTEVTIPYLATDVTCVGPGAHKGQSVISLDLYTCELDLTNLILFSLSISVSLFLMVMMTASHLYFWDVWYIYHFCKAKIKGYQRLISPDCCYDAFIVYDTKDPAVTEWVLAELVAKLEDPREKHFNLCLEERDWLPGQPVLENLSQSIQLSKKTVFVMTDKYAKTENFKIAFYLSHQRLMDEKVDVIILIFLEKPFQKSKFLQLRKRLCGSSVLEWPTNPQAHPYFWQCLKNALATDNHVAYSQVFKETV
Summary of the method: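 Compounds added to HEK cells expressing TLR7 with an NFκB reporter 30 min ahead of 10 uM R848 challenge; luciferase signal (Steady-Glo) measured after 5 h, cells having been seeded 24 h earlier at 5000 per well.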

[2] = target: T2, TLR8 (Homo sapiens, UniProt Q9NR97); experiment: HEK/293 TLR8 Cell Assay; format: cell-based; settings: HEK cells, R848 agonist 30 uM final concentration, Steady-Glo readout; read-out: TLR8 potency
T2 construct: expressed in transfected cells; host or cells: HEK/293 reporter cells (NF-kB luciferase)
T2 sequence (Q9NR97 27-1041): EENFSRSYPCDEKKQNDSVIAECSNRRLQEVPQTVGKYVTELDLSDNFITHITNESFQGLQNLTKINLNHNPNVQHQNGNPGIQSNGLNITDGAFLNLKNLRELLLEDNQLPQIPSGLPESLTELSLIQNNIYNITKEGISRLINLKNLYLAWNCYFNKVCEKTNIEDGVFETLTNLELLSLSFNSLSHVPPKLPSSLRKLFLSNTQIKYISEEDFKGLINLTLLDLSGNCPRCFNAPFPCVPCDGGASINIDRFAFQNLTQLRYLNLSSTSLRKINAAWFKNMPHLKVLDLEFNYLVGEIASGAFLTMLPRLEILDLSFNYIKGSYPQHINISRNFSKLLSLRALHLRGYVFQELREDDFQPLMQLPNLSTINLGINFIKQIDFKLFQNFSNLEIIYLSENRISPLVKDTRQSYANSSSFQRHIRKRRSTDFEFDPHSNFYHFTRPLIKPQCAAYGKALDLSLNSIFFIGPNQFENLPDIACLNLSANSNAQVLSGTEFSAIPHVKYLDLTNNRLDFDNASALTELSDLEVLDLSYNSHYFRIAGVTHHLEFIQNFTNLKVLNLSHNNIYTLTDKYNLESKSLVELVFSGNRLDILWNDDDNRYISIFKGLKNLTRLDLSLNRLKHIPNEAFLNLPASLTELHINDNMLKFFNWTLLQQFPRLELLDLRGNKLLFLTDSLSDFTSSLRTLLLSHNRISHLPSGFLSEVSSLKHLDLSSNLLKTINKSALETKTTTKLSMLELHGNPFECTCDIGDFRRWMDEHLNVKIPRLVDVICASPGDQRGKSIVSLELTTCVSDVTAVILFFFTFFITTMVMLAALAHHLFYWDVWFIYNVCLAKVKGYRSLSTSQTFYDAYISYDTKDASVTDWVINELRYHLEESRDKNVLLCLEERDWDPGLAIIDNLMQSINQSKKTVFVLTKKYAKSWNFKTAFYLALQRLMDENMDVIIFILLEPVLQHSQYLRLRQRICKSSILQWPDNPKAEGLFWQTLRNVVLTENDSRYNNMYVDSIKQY

Row | IC50 [1] [nM] | IC50 [2] [nM] | SMILES
1 | < 75 | < 75 | C[C@H]1C[C@@H](NC(=O)C2CCN(C(=O)[C@@H](N)[C@@H](C)O)CC2)CN(c2ccc(C(F)(F)F)c3ncccc23)C1 [Example 182, 1-((2S,3R)-2-Amino-3-hydroxy-butyryl)-piperidine-4-carboxylic acid [(3R,5S)-5-methyl-1-(8-trifluoromethyl-quinolin-5-yl)-piperidin-3-yl]-amide]
2 | < 75 | < 75 | C[C@H]1C[C@@H](N)CN(c2cnc(C#N)c3nccnc23)C1 [Example 187, 8-((3R,5S)-3-Amino-5-methyl-piperidin-1-yl)-pyrido[3,4-b]pyrazine-5-carbonitrile hydrochloride]
3 | < 75 | < 75 | C[C@H]1C[C@@H](NC(=O)CN2CCN(C)CC2)CN(c2cnc(C#N)c3nccnc23)C1 [Example 188, N-[(3R,5S)-1-(5-Cyano-pyrido[3,4-b]pyrazin-8-yl)-5-methyl-piperidin-3-yl]-2-(4-methyl-piperazin-1-yl)-acetamide]
4 | 75 to 150 | < 75 | C[C@H]1C[C@@H](NC(=O)CCC2CCN(C)CC2)CN(c2cnc(C#N)c3nccnc23)C1 [Example 189, N-[(3R,5S)-1-(5-Cyano-pyrido[3,4-b]pyrazin-8-yl)-5-methyl-piperidin-3-yl]-3-(1-methyl-piperidin-4-yl)-propionamide]
5 | 75 to 150 | < 75 | CC(C(=O)N[C@@H]1C[C@H](C)CN(c2cnc(C#N)c3nccnc23)C1)N1CCN(C)CC1 (stereo partly drawn) [Example 190, N-[(3R,5S)-1-(5-Cyano-pyrido[3,4-b]pyrazin-8-yl)-5-methyl-piperidin-3-yl]-2-(4-methyl-piperazin-1-yl)-propionamide]
6 | > 150 | < 75 | CC(C)[C@H](O)C(=O)N[C@@H]1C[C@H](C)CN(c2cnc(C#N)c3nccnc23)C1 [Example 196, (S)—N-[(3R,5S)-1-(5-Cyano-pyrido[3,4-b]pyrazin-8-yl)-5-methyl-piperidin-3-yl]-2-hydroxy-3-methyl-butyramide]
7 | 75 to 150 | < 75 | COc1ncc(N2C[C@@H](C)C[C@@H](N)C2)c2nccnc12 [Example 199, (3R,5S)-1-(5-Methoxy-pyrido[3,4-b]pyrazin-8-yl)-5-methyl-piperidin-3-ylamine]

The next lines start with the molecule.

Row | SMILES | IC50 [1] [nM] | IC50 [2] [nM]
8 | C[C@H]1C[C@@H](NC(=O)C2CCCCN2)CN(c2ccc(C(F)(F)F)c3ncccc23)C1 (stereo partly drawn) [Example 181, Piperidine-2-carboxylic acid [(3R,5S)-5-methyl-1-(8-trifluoromethyl-quinolin-5-yl)-piperidin-3-yl]-amide] | < 75 | < 75
9 | N#Cc1ccc(N2C[C@H](NC(=O)C3CCCCN3)C[C@H](C(F)(F)F)C2)c2cccnc12 (stereo partly drawn) [Example 183, Piperidine-2-carboxylic acid [(3R,5S)-1-(8-cyano-quinolin-5-yl)-5-trifluoromethyl-piperidin-3-yl]-amide] | 75 to 150 | 75 to 150
10 | C[C@@H](O)[C@H](N)C(=O)N1CCC(CC(=O)N[C@@H]2C[C@H](C(F)(F)F)CN(c3ccc(C#N)c4ncccc34)C2)CC1 [Example 184, 2-[1-((2S,3R)-2-Amino-3-hydroxy-butyryl)-piperidin-4-yl]-N-[(3R,5S)-1-(8-cyano-quinolin-5-yl)-5-trifluoromethyl-piperidin-3-yl]-acetamide] | > 150 | 75 to 150
11 | N#Cc1ccc(N2C[C@H](NC(=O)C3CCCNC3)C[C@H](C(F)(F)F)C2)c2cccnc12 (stereo partly drawn) [Example 185, Piperidine-3-carboxylic acid [(3R,5S)-1-(8-cyano-quinolin-5-yl)-5-trifluoromethyl-piperidin-3-yl]-amide] | > 150 | 75 to 150
12 | C[C@H]1C[C@@H](NC(=O)CCN(C)C)CN(c2ccc(C(F)(F)F)c3ncccc23)C1 [Example 186, 3-Dimethylamino-N-[(3R,5S)-5-methyl-1-(8-trifluoromethyl-quinolin-5-yl)-piperidin-3-yl]-propionamide] | < 75 | < 75
13 | C[C@H]1C[C@@H](NC(=O)CCC2CCN(C)CC2)CN(c2ccc(C#N)c3ncncc23)C1 [Example 191, N-[(3R,5S)-1-(8-Cyano-quinazolin-5-yl)-5-methyl-piperidin-3-yl]-3-(1-methyl-piperidin-4-yl)-propionamide] | 75 to 150 | 75 to 150
14 | C[C@H]1C[C@@H](NC(=O)CC2(F)CCN(C)CC2)CN(c2ccc(C#N)c3nccnc23)C1 [Example 192, N-[(3R,5S)-1-(8-Cyano-quinoxalin-5-yl)-5-methyl-piperidin-3-yl]-2-(4-fluoro-1-methyl-piperidin-4-yl)-acetamide] | < 75 | < 75
15 | C[C@H]1C[C@@H](NC(=O)CCn2ccnc2)CN(c2ccc(C#N)c3nccnc23)C1 [Example 193, N-[(3R,5S)-1-(8-Cyano-quinoxalin-5-yl)-5-methyl-piperidin-3-yl]-3-imidazol-1-yl-propionamide] | < 75 | < 75
16 | C[C@H]1C[C@@H](NC(=O)CCN2CCOCC2)CN(c2ccc(C#N)c3nccnc23)C1 [Example 194, N-[(3R,5S)-1-(8-Cyano-quinoxalin-5-yl)-5-methyl-piperidin-3-yl]-3-morpholin-4-yl-propionamide] | 75 to 150 | < 75
17 | C[C@H]1C[C@@H](NC(=O)CCS(=O)(=O)N(C)C)CN(c2ccc(C#N)c3nccnc23)C1 [Example 195, N-[(3R,5S)-1-(8-Cyano-quinoxalin-5-yl)-5-methyl-piperidin-3-yl]-3-dimethylsulfamoyl-propionamide] | 75 to 150 | 75 to 150
18 | C[C@H]1C[C@@H](NS(=O)(=O)NC2CCN(C)CC2)CN(c2ccc(C(F)(F)F)c3ncccc23)C1 [Example 200, N-(1-methylpiperidin-4-yl){[(3R,5S)-5-methyl-1-[8-(trifluoromethyl)quinolin-5-yl]piperidin-3-yl]amino}sulfonamide] | < 75 | < 75
19 | C[C@H]1C[C@@H](NS(=O)(=O)NCCC2CCN(C)CC2)CN(c2ccc(C(F)(F)F)c3ncccc23)C1 [Example 201, N-[2-(1-methylpiperidin-4-yl)ethyl]{[(3R,5S)-5-methyl-1-[8-(trifluoromethyl)quinolin-5-yl]piperidin-3-yl]amino}sulfonamide] | < 75 | < 75
20 | C[C@H]1C[C@@H](NS(=O)(=O)NC(=O)CC2CCN(C)CC2)CN(c2ccc(C(F)(F)F)c3ncccc23)C1 [Example 202, N-{[(3R,5S)-5-methyl-1-[8-(trifluoromethyl)quinolin-5-yl]piperidin-3-yl]sulfamoyl}-2-(1-methylpiperidin-4-yl)acetamide] | 75 to 150 | < 75
